Test results published in US9302999B2, “Substituted triazoles as herbicides” (E. I. DU PONT DE NEMOURS AND COMPANY, priority 2012, dated 2016).

Key:
Assay type in all cases: in vivo
[1] = test system: crabgrass, large (large crabgrass, Digitaria sanguinalis); assay: Test A pre-/postemergence: crabgrass, large
How it was run: (§1)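 Pre: directed soil spray after planting in loam + sand. Post: same formulation (non-phytotoxic solvent + surfactant) on 1–2-leaf plants, 2–10 cm. Greenhouse ~10 d; visual injury 0–100 vs untreated.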

[2] = test system: foxtail, giant (giant foxtail, Setaria faberii); assay: Test A pre-/postemergence: foxtail, giant
How it was run: as §1

[3] = test system: pigweed (Amaranthus retroflexus); assay: Test A pre-/postemergence: pigweed
How it was run: as §1

[4] = test system: velvetleaf (Abutilon theophrasti); assay: Test A pre-/postemergence: velvetleaf
How it was run: as §1

[5] = test system: wheat (Triticum aestivum); assay: Test A pre-/postemergence: wheat
How it was run: as §1

[6] = test system: barnyardgrass (Echinochloa crus-galli); assay: Test B flooded paddy: barnyardgrass; settings: Flood; 250 g ai/ha; applied to paddy water at 2-leaf stage; visually evaluated after 13 to 15 days
How it was run: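 Greenhouse assay lasting 13 to 15 days. Treatment was into water flooding pots 3 cm deep, at the 2-leaf stage, with that level sustained afterwards. Scores compare treated with control plants visually, 100 denoting complete control and 0 no effect; a dash marks no test result.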

[7] = test system: blackgrass (Alopecurus myosuroides); assay: Test C pre-/postemergence: blackgrass
How it was run: (§2)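 Visual injury scored 0–100 (100 = complete control) against untreated controls after 13–15 greenhouse days. Surfactant-containing solvent formulations applied either to soil after sowing (loam/sand) or over 1- to 4-leaf plants, 2–18 cm tall.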

[8] = test system: morningglory (Ipomoea coccinea); assay: Test C pre-/postemergence: morningglory
How it was run: as §2

[9] = test system: ragweed (common ragweed, Ambrosia elation); assay: Test C pre-/postemergence: ragweed
How it was run: as §2

[10] = test system: chickweed (common chickweed, Stellaria media); assay: Test C postemergence: chickweed
How it was run: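 Response values are visual ratings, 0 (no effect) to 100 (complete control), made by comparison with untreated controls 13 to 15 days after postemergence treatment of greenhouse-grown potted plants that were 2 to 18 cm high at spraying.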

[11] = Postemergence, 125 g ai/ha, 0 to 100 scale, 0 is no effect, 100 is complete control
[12] = Postemergence, 500 g ai/ha, 0 to 100 scale, 0 is no effect, 100 is complete control
[13] = Preemergence, 125 g ai/ha, 0 to 100 scale where 0 is no effect and 100 is complete control
[14] = Preemergence, 500 g ai/ha, 0 to 100 scale (0 no effect, 100 complete control)
[15] = Postemergence, 31 g ai/ha, scale 0 to 100 (0 no effect, 100 complete control)
[16] = Postemergence, 62 g ai/ha, scale 0 to 100 (0 no effect, 100 complete control)
[17] = Postemergence, 125 g ai/ha, scale 0 to 100, 0 no effect, 100 complete control
[18] = Preemergence, 31 g ai/ha, scale 0 (no effect) to 100 (complete control)
[19] = Preemergence, 62 g ai/ha, scale of 0 to 100, 0 is no effect, 100 is complete control
[20] = Preemergence, 125 g ai/ha, scale 0 to 100, 0 no effect, 100 complete control
[21] = Preemergence, 250 g ai/ha, scale 0 to 100, 0 no effect, 100 complete control
[22] = Postemergence, 250 g ai/ha, scale 0 to 100 (0 no effect, 100 complete control)

## CCc1nn(-c2ccc(C(F)(F)F)cc2)nc1Oc1ccnc(C(F)(F)F)c1 [Compound 169]
[1]; [11]
  Plant response rating, Crabgrass, Large: 90
[1]; [12]
  Crabgrass, Large plant response rating: 90
[1]; [13]
  Plant response rating, Crabgrass, Large: 100
[1]; [14]
  Plant response rating, Crabgrass, Large: 100
[2]; [11]
  Plant response rating, Foxtail, Giant: 80
[2]; [12]
  Foxtail, Giant plant response rating: 90
[2]; [13]
  Plant response rating, Foxtail, Giant: 100
[2]; [14]
  Plant response rating, Foxtail, Giant: 100
[3]; [11]
  Plant response rating, Pigweed: 100
[3]; [12]
  Pigweed plant response rating: 100
[3]; [13]
  Plant response rating, Pigweed: 100
[3]; [14]
  Plant response rating, Pigweed: 100
[4]; [11]
  Plant response rating, Velvetleaf: 100
[4]; [12]
  Velvetleaf plant response rating: 100
[4]; [13]
  Plant response rating, Velvetleaf: 50
[4]; [14]
  Plant response rating, Velvetleaf: 90
[5]; [11]
  Plant response rating, Wheat: 30
[5]; [12]
  Wheat plant response rating: 40
[5]; [13]
  Plant response rating, Wheat: 20
[5]; [14]
  Plant response rating, Wheat: 50
[6]
  Plant response rating, Barnyardgrass (0 to 100 scale, 0 is no effect, 100 is complete control): 75
[7]; [15]
  Plant response rating, Blackgrass: 5
[7]; [16]
  Plant response rating, Blackgrass: 15
[7]; [17]
  Plant response rating, Blackgrass: 35
[7]; Postemergence, 250 g ai/ha, scale 0 to 100
  Plant response rating, Blackgrass: 50
[7]; [18]
  Plant response rating, Blackgrass: 80
[7]; [19]
  Plant response rating, Blackgrass: 90
[7]; [20]
  Plant response rating, Blackgrass: 95
[7]; [21]
  Plant response rating, Blackgrass: 95
[8]; [15]
  Plant response rating, Morningglory: 98
[8]; [17]
  Plant response rating, Morningglory: 100
[8]; [22]
  Plant response rating, Morningglory: 100
[8]; [18]
  Plant response rating, Morningglory: 25
[8]; [19]
  Plant response rating, Morningglory: 55
[8]; [20]
  Plant response rating, Morningglory: 80
[8]; [21]
  Plant response rating, Morningglory: 85
[9]; [15]
  Plant response rating, Ragweed: 40
[9]; [16]
  Plant response rating, Ragweed: 60
[9]; [17]
  Plant response rating, Ragweed: 85
[9]; [22]
  Plant response rating, Ragweed: 95
[9]; [18]
  Plant response rating, Ragweed: 15
[9]; [19]
  Plant response rating, Ragweed: 15
[9]; [20]
  Plant response rating, Ragweed: 30
[9]; [21]
  Plant response rating, Ragweed: 65
[10]; 31 g ai/ha, scale 0 to 100 (0 no effect, 100 complete control)
  Plant response rating, Chickweed: 60
[10]; 62 g ai/ha, scale 0 to 100 (0 no effect, 100 complete control)
  Plant response rating, Chickweed: 60
[10]; 125 g ai/ha, scale 0 to 100, 0 no effect, 100 complete control
  Plant response rating, Chickweed: 95
[10]; 250 g ai/ha, scale 0 to 100
  Plant response rating, Chickweed: 100
